Data as given in article PMC7206614, “Photoswitchable ORG25543 Congener Enables Optical Control of Glycine Transporter 2” (ACS Chemical Neuroscience, 2020).
“Also recorded” adds a separate entry of the source.

Experiments:
[1] = tested on: rodent models of neuropathic pain; settings: cited from earlier work
[2] = molecular target: T1, GlyT2 (Homo sapiens, UniProt Q9Y345); test: Two-electrode voltage clamp of glycine transport currents in Xenopus laevis oocytes expressing GlyT2; type: cell-based; settings: for reversibility: restoration of glycine transport currents after washout: inhibition at IC50 concentrations (1: 4 nM, 2: 50 nM), washed with ND96 for 30 min, glycine reapplied at 5 min intervals; for IC50: oocytes expressing GlyT2, Figure 4A, range in brackets, read-out: IC50, reduction of glycine transport currents
T1 construct: expressed in transfected cells; host or cells: Xenopus laevis oocytes injected with in vitro transcribed RNA
T1 sequence (Q9Y345 1-797): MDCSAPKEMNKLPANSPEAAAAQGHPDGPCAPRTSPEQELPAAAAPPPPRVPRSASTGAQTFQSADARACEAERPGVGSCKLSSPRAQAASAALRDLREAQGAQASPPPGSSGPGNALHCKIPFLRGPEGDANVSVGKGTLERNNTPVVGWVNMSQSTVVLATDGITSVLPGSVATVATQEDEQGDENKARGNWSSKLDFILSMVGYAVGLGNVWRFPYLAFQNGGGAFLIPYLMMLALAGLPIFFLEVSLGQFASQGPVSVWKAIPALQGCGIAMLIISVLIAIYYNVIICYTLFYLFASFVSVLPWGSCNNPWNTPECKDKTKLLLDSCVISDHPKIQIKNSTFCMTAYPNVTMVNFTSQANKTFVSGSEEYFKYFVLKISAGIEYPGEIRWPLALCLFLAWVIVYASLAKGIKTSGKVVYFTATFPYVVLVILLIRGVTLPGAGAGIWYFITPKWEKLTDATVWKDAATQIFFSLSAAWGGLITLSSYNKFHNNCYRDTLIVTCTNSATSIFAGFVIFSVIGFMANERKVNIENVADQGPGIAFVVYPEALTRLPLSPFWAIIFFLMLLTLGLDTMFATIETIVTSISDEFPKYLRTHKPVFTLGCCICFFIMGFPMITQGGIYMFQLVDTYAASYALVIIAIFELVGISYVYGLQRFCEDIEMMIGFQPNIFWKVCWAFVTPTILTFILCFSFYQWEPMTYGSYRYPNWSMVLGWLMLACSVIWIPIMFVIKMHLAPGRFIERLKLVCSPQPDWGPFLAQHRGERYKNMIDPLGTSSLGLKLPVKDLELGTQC

[3] = tested on: rodents; settings: cited from earlier work
[4] = tested on: GlyT2; set-up: method as in PMID 23962079; settings: cited from earlier work; for IC50: two-electrode voltage clamp, Xenopus laevis oocytes expressing GlyT2, read-out: IC50 at GlyT2 (potency); for reversibility of GlyT2 inhibition: washout from oocytes expressing GlyT2
[5] = tested on: mouse spinal cord slices; set-up: method as in PMID 15235081; settings: exposure of mouse spinal cord slices for >10 min; cited from earlier work
[6] = set-up: method as in PMID 23962079; settings: cited from earlier work

Row | Structure (SMILES) | effect on neuropathic pain (hyperalgesia and allodynia) [1] | reversibility: restoration of glycine transport currents after washout [2] | IC50 [2] [nM] | toxicity on acute dosing in rodents [3] | IC50 [4] [nM] | reversibility of GlyT2 inhibition [4] | effect on inhibitory postsynaptic currents [5] | EC50 [2] [nM] | blood brain barrier permeability [6] | analgesia in rodent models of neuropathic pain [1] | adverse side effects ([3]; rodent)
1 | COc1cc(C(=O)NCC2(N(C)C)CCCC2)cc(OC)c1OCc1ccccc1 [ORG25543] | ameliorates both hallmarks of neuropathic pain | no reversibility | 3.76 | excitotoxicity, hyperekplexia-like symptoms, and in severe cases death | 20 | irreversible; also recorded: cannot be restored | long-term reduction of inhibitory postsynaptic currents |  |  |  | 
2 | NCC(=O)O [glycine] |  |  |  |  |  |  |  | 14300 |  |  | 
3 | COc1cc(C(=O)NCC2(N(C)C)CCCCC2)ccc1OCc1ccccc1 [compound 2] |  | restoration of glycine transport currents | 48.5 |  | 100 | readily reversible; also recorded: allows for restoration of glycine currents |  |  | blood brain barrier permeable | produced analgesia | no adverse side effects
